Assays:
RXRα = RXRα expression by qRT-PCR in cytokine-treated primary articular chondrocytes; format: cell-based; details: primary human articular chondrocytes (n=4 donors), monolayer culture, 18 hours; IL-1β 1 ng/ml, TNFα 10 ng/ml; vs vehicle/untreated
Description: (§1) For isolation of RNA from chondrocytes in monolayer culture, pellets were digested with collagenase (2.5 mg/ml, Sigma, St Louis, Mo.) and RNA was subsequently prepared using TRIzol reagent (Invitrogen) according to the manufacturer's protocol. Primary chondrocytes in monolayer culture were lysed by direct addition of TRIzol reagent followed by standard TRIzol RNA purification methodologies.
(§2) Chondrocytes were isolated from fresh human articular cartilage using a standard method previously described (Heinlein et al., Endocr. Rev. 25:276-308 (2004)). Cells were cultured in 10% FBS containing DMEM/F12 growth media for 2-3 days in 12 well culture plates at a density of 1-2×10^6 cells/well. Chondrocyte cultures were stimulated with cytokines (TNFα: 10 ng/ml; IL-1β: 1 ng/ml) for 18 hours.
(§3) cDNA was prepared from purified RNA using the High-Capacity cDNA Archive Kit (Applied Biosystems, catalog #4322171) according to the manufacturer's instructions. Quantitative real-time PCR was performed using either human TaqMan® Gene Expression assays or TaqMan® Low Density Arrays (TLDA) from Applied Biosystems. Thermal cycling was performed using either an ABI Prism 7900 Sequence Detection System (for TLDA) or an ABI Prism 7700 Sequence Detection System (for individual TaqMan® Gene Expression Assays). […]

RXRγ = RXRγ expression by qRT-PCR in cytokine-treated primary articular chondrocytes; format: cell-based; details: primary human articular chondrocytes (n=4 donors), monolayer culture, 18 hours; IL-1β 1 ng/ml, TNFα 10 ng/ml; vs vehicle/untreated
Description: as §1, §2, §3

With “IL-1: inflammatory cytokine purchased from R&D Systems, used to stimulate chondrocyte cultures” the RXRα expression (RXRα) was “significantly reduced” and the RXRγ expression (RXRγ) was “not”.
